The results in this text go back to PubChem BioAssay (NCI).

What all share (experiment): growth of human tumour cells (NCI), 48 h
Test [1] has as its system SF-295 CNS.
For test [2], the system named is PC-3 prostate.
In test [3] the test system is SK-OV-3 ovarian.
In test [4] the test system is MCF7 breast.
For test [5], the system named is MOLT-4 leukemia.
The test system of test [6] is OVCAR-8 ovarian.
The subject of test [7] is SNB-75 CNS.
Test [8] has as its system SK-MEL-28 melanoma.

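Method: 48-hour compound exposure of cells in 96-well plates, five concentrations, linear interpolation of endpoints. TGI marks complete inhibition of growth.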

`COc1c(-c2cccs2)oc2c(CC(=O)O)cccc2c1=O`: the TGI in test [1], in test [2], in test [3], in test [4] and in test [5] was > 100 µM throughout.

As for `COC12OC3CC4(C)C(=CC3OC(OC(C)C1O)C2O)CCC1C4CCC2(C)C(c3ccc(=O)oc3)CCC12O` (stereo not given), the TGI was found to be 0.00318 µM in test [6]; 0.447 µM in test [1]; 0.00214 µM in test [2]; 0.272 µM in test [3]; 0.00432 µM in test [4]; 0.00571 µM in test [7]. The figures for the TGI in test [5] and in test [8] were < 0.001 µM and 0.0434 µM, respectively.

`NC(=O)C[C@H](NC(=O)C1(NC(=O)[C@H](Cc2ccc(CP(=O)(O)O)cc2)NC(=O)C(=O)O)CCCCC1)C(=O)NCCCc1cccc2ccccc12`: the TGI in test [6], in test [1], in test [2], in test [3], in test [4] and in test [7] was > 10 µM in each case. Further, the TGI in test [5] and in test [8] was > 10 µM each time.

`COc1ccc(CCNC(=O)CCCCCO)cc1OC`: the TGI in test [6], in test [1], in test [2], in test [3], in test [4] and in test [7] was > 100 µM throughout. For the same molecule, the TGI in test [5] and in test [8] was > 100 µM in each case.

For `COc1cccc2c1-c1c(OC)cccc1SS2`, the TGI in test [6] is 72.6 µM; in test [1], 43.6 µM; in test [2] it was > 100 µM; in test [4] it was > 100 µM; in test [5] it was 38.1 µM; in test [8], 79.4 µM.

Turning to `CC(C)(C)c1cc(/C=C/C(=O)CC(=O)/C=C/c2cc(C(C)(C)C)c(O)c(C(C)(C)C)c2)cc(C(C)(C)C)c1O`, the TGI in test [6], in test [1], in test [2], in test [3], in test [4] and in test [7] was > 50 µM each time. Also, the TGI in test [8] is > 50 µM.

Consider `COP(=O)(OC)c1ccc(NCc2cc(O)ccc2O)cc1`, for which the TGI is > 71.2 µM in test [6]; 35.2 µM in test [1]; > 100 µM in test [2]; > 100 µM in test [3]; 99.3 µM in test [4]; > 77.7 µM in test [7]. Besides, the TGI in test [5] was > 86.3 µM; in test [8], > 70.2 µM.

`O=C(O)CN(CC(=O)O)Cc1ccn(-c2cccc(-n3ccc(CN(CC(=O)O)CC(=O)O)n3)n2)n1`: the TGI in test [6], in test [1], in test [2], in test [3], in test [4] and in test [7] was > 100 µM each time. The TGI in test [5] and in test [8] was > 100 µM in each case.

On to `C[C@]12CC[C@H](O)CC1=CC[C@@H]1[C@@H]2CC[C@]2(C)c3nc(Cl)ccc3C[C@@H]12`, for which the TGI in test [6] is > 100 µM; in test [1], > 100 µM; in test [2], > 100 µM; in test [3] it was 99.2 µM; in test [4], > 100 µM; in test [7], 46.8 µM. Further, the TGI in test [5] and in test [8] was > 100 µM in each case.

For the molecule `CCOC(=O)c1cn(CC)c2cc3c(cc2c1=O)CCS3(=O)=O`, the TGI in test [6], in test [1], in test [2], in test [3], in test [4] and in test [5] was > 100 µM throughout. Also, the TGI in test [8] is > 100 µM.

With `CN(C)CCCNc1cnc2cc3ccccc3cc2n1`, the TGI in test [6] was 59.4 µM; in test [1], 52.4 µM; in test [2] it was 45.6 µM; in test [3], > 100 µM; in test [4], 44.8 µM; in test [7], 70.6 µM. Moreover, the figures for the TGI in test [5] and in test [8] were 81.7 µM and 81.5 µM, respectively.

Consider `COc1cc2c(cc1OC(=O)c1cc3ccccc3[nH]1)N=C[C@@H]1CCCN1C2=O`, for which the TGI in test [1] came to 4.48 µM; in test [2], 6.93 µM; in test [3], 15.2 µM; in test [4] it was 13 µM; in test [7], 7.02 µM; in test [5], 0.553 µM. Moreover, in test [8], the TGI worked out at 2.21 µM.

For `CNC(=O)c1ccccc1[S+]1c2cccc3cccc(c23)C(=O)N1C` (stereo not given), the TGI in test [6], in test [1], in test [2], in test [4], in test [5] and in test [8] was > 100 µM each time.

`COc1ccc(NCc2cnc3nc(N)nc(N)c3c2C)cc1`: the TGI in test [2], in test [3], in test [4], in test [7], in test [5] and in test [8] was > 100 µM each time.

On to `O=C(Cc1ccccc1)N=Nc1c(O)[nH]c2ccccc12`, for which the TGI in test [6], in test [1], in test [2], in test [3], in test [4] and in test [7] was > 100 µM throughout. The TGI in test [5] is > 100 µM.

As to `CC1(C)O[C@H]2OC(CO)C(OS(C)(=O)=O)[C@H]2O1` (stereo not given in full), the TGI in test [6], in test [1], in test [2], in test [4], in test [7] and in test [8] was > 100 µM in each case.

For the molecule `COC(=O)c1c(O)ccc2c1c1c(n2Cc2ccccn2)C(=O)c2ccccc2C1=O`, the TGI in test [6] was > 100 µM; in test [1], 70.6 µM; in test [2], > 100 µM; in test [3], 61.1 µM; in test [4], > 100 µM; in test [5], > 100 µM. The molecule further gave a TGI in test [8] of 99.2 µM.
